Source: patent US20080275058A1, “N-Substituted-1H-Quinoline-2,4-Diones, Preparation Method Thereof, And Pharmaceutical Composition Containing The Same” (KOREA RESEARCH INSTITUTE OF CHEMICAL TECHNOLOGY, priority 2005, published 2008)

Tests used:
rats [1] = experiment: Methamphetamine-induced disruption of prepulse inhibition (PPI) in rats; format: in vivo, rat
Experimental: To assay antipsychotic properties of the compounds according to the invention, prepulse inhibition (PPI) of acoustic startle in animals was performed. Startle response was measured using SR-LAB startle chamber (San Diego Instruments, San Diego, USA). The animal enclosure was housed in a ventilated and sound-attenuated startle chamber with 60 dB ambient noise level, and consisted of a Plexiglas cylinder 40 mm in diameter on a platform, connected to a piezoelectric accelerometer which detects and transducer motion within the cylinder. Acoustic noise bursts were presented through a loudspeaker mounted 24 ? above the animal. […] Each startle session began with a 5-min acclimatization period in the chamber to 68 dB background noises. The test session consisting of the following four different trial types was carried for all experiments: a 40 ms broadband 120 dB burst (P; pulse alone trial), P preceded 100 ms earlier by a 20 ms noise burst 10 dB above background (pP; prepulse+pulse trial), a 40 ms broadband 78 dB burst (prepulse alone trial), and a no stimulus trial (background). Eight trials of each type were presented in a pseudorandom order (total32 trials) with an average interval of 15 sec. separating each trial. An extra 5 pulse-alone trials were presented at the beginning and end of each test session, but were not used in the calculation of PPI values. PPI was defined as the percent reduction in startle amplitude in the presence of prepulse compared to the amplitude in the absence of the prepulse using the following Math Equation 1. […] Differences were considered significant at P<0.05. Statistical analyses were conducted using SigmaStat software (SigmaStat, Jandel Co., San Rafael, Calif.). The data were expressed as means±SEM.

[2] = frontal cortex and dorsal hippocampus; cited from earlier work
rats [3] = settings: water maze; cited from earlier work
[4] = background literature; cited from earlier work
rat = settings: background literature; cited from earlier work
5-HT2c = target: T1, 5-HT2c (Homo sapiens, UniProt P28335); experiment: Radioligand binding, 5-HT2c ([3H]Mesulergine); settings: Table 4; [3H]Mesulergine 1 nM; read-out: Binding affinity, IC50 (nM) 5-HT2c
T1 construct: purchased Euroscreen/BioSignal Packard Inc
T1 sequence (P28335 33-458): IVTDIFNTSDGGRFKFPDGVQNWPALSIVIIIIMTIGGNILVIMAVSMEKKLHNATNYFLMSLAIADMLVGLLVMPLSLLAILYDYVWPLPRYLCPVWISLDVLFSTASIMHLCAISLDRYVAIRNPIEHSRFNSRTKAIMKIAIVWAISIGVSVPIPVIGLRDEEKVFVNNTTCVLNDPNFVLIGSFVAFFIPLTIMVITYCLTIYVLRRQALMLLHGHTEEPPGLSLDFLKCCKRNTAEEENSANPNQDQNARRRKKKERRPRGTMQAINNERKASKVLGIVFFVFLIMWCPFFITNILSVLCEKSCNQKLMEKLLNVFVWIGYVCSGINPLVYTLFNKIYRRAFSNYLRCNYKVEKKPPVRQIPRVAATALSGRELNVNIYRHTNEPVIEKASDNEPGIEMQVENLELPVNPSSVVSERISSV

hD2L = target: T2, hD2L (Homo sapiens, UniProt P14416); experiment: Radioligand binding, dopamine D2 ([3H]spiperone); settings: Table 4; [3H]spiperone 1 nM; read-out: Binding affinity, IC50 (nM) D2
T2 construct: purchased BioSignal Packard Inc., Montreal, Canada
T2 sequence (P14416 whole entry): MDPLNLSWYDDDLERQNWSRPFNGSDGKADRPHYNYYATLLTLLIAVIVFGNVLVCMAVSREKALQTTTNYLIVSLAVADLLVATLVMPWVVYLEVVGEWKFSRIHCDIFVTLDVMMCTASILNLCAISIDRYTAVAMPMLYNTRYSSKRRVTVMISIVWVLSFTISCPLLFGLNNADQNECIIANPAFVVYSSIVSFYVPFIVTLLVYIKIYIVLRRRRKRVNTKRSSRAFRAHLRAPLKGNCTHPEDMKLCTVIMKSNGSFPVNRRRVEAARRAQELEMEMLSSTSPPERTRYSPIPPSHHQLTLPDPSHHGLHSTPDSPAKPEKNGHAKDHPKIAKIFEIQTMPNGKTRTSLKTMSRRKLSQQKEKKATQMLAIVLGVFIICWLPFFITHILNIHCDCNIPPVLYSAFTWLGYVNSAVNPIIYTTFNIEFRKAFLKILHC
In short: (§1)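 Membrane competition binding with [3H]spiperone (1 nM) for hD2L and hD3, or [3H]YM-09151-2 (0.06 nM) for hD4.2, each in receptor-specific Tris-HCl pH 7.4 buffer containing Mg2+/EDTA (D3 and D4 also with K+, Ca2+; D3 with 120 mM NaCl). Compounds were tested at 7-8 concentrations in duplicate, and IC50 was derived by nonlinear regression across three assays.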

hD4.2 receptor = target: T3, hD4.2 receptor (Homo sapiens, UniProt P21917, DEL265-296); experiment: Radioligand binding, dopamine D4 ([3H]YM-09151-2); settings: Table 4; [3H]YM-09151-2 0.06 nM; read-out: Binding affinity, IC50 (nM) D4
T3 construct: purchased BioSignal Packard Inc., Montreal, Canada
T3 sequence (P21917 with tags, fused parts or gaps DEL265-296): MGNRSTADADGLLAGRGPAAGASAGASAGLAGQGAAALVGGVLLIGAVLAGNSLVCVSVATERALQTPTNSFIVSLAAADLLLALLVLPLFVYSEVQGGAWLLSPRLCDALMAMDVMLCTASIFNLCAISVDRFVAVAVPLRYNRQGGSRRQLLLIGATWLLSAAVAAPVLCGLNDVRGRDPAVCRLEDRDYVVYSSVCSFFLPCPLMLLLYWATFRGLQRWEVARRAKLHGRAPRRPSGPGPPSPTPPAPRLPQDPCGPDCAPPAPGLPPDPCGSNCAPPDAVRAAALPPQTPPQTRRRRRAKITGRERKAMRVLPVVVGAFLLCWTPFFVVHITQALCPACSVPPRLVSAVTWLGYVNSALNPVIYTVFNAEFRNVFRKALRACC
In short: as §1

## SB-271046 [reference compound]
Rats [1]; administered 30 min before methamphetamine
  mean startle amplitude compared with methamphetamine group: no significant differences
Rats [1]; rats, i.p., 30 min before methamphetamine (3, i.p.), P<0.05
  disruption of PPI by methamphetamine, effect of pretreatment: reversed significantly
[2]
  extracellular glutamate levels: increased extracellular glutamate levels in frontal cortex and dorsal hippocampus by several fold
Rats [3]
  retention of a previously learned task: significant improvement
[4]
  oral bioavailability: > 80%
rat
  anticonvulsant activity: possess anticonvulsant activity
5-HT2c
  IC50: 3960 nM
hD2L
  IC50: > 10000 nM
hD4.2 receptor
  IC50: > 10000 nM
